One test has as its target HBV (hairpin RNA). Kind of test: Dissociation constant by competitive fluorescence anisotropy with rhodamine-rev peptide probe. In kind it is binding. The settings on record: Table 6. On the procedure: (§1) The binding affinity between the peptide synthesized in <Example 1> and pre-miRNA from <Example 2> were measured by fluorescence anisotropy using competitive binding method. A rev peptide with rhodamine attached at the N-terminal was used as a fluorescent probe and LS-55 luminescence spectrometer from Perkin-Elmer was use for analysis. A constant temperature of 20° C. was maintained by a water bath. The fluorescent intensity was measured by of 200 nM of rhodamine-rev peptide was measured with an excitation wavelength at 550 nm (band path 10 nm) and detection at 580 nm (band path 10 nm). The integration time […]. Each experimental value is the mean value of 5 measurements. A 20 mM of HEPES{4-(2-hydroxyethyl)-1-piperazineethanesulfonic acid} buffer (pH 7.5) containing 140 mM NaCl, 5 mM KCl and 1 mM MgCl2 was used for measuring the dissociation constant. The dissociation constant was determined according to the Mathematical Formula 1 and using Kaledia graph.
(§2) A and Ao are the fluorescence anistropy in the presence or absence of RNA, whereas ΔA is the difference between these two values. [RNA]0 and [Rh-rev]0 are initial concentrations of RNA and rev peptide binding with rhodamine.
(§3) According the method described in <Example 3>, the dissociation constant between second generation peptide and 2 pre-miRNAs synthesized from <Example 2> was determined using fluorescent polarization detection method and fluorescent probe molecule.
(In general: Fluorescence polarisation rises when a labelled molecule tumbles more slowly, as on binding a larger partner.)

Another test has as its target IRES (hairpin RNA). Described as above. The test is classed as binding. Conditions: Table 6. On the procedure: as §1, §2, §3
A further test addresses pre-let7a-1. Described as above. The test is classed as binding. The settings on record: for Discrimination ratio pre-let7a-1 (in parenthesis): Kd against other RNA (HBV, IRES, other miRNAs)/Kd against target miRNA. The procedure: as §1, §2, §3
For another test, the system named is pre-miR16-1. The description is as above. In kind it is binding. The settings on record: for Discrimination ratio pre-miR16-1 (in parenthesis): Kd against other RNA/Kd against target miRNA. On the procedure: as §1, §2, §3
The target in another test is pre-miR24-1. Described as above. The test is classed as binding. The settings on record: Table 6; for Discrimination ratio pre-miR24-1 (in parenthesis): Kd against other RNA/Kd against target miRNA. The procedure: as §1, §2, §3
The test system of test [1] is recombinant human Dicer processing pre-let7a-1. The experiment in a line: Dicer activity assay in the presence of peptide, substrate pre-let7a-1. In kind it is biochemical. Conditions: for initial reaction velocity (V0) of Dicer, normalized to no peptide: 400 nM peptide, pre-let7a-1 substrate, FIG. 2; for initial reaction velocity of Dicer: FIG. 3. The procedure:
Two types of pre-miRNA (pre-let7a-1, pre-miR16-1) used as the substrate for the Dicer enzyme activity assay was ordered and manufactured by ST Pharm Co., Ltd (FIG. 1). For Dicer activity assay, the 5′ end of the synthesized pre-miRNA was labeled with ^32p isotope. Two pmole of each pre-miRNA was isotope labeled with […] of [g-^32P]ATP (New England Biolabs) using 10 units of T4 polynucleotide kinase (New England Biolabs). Total volume of 10 μl was isotope labeled for 1 hr at 37° C. The isotope labeled RNA obtained after the reaction was purified using G-25 Sephadex column (Sigma). The purified substrate was used for measuring Dicer enzyme activity. Total reaction mixture of 30 μl containing 1 nM of isotope labeled pre-miRNA and 0.001 u/μl of recombinant human Dicer (Genlantis, CA, USA) were incubated at 37° C. in 24 mM 4-(2-hydroxyethyl)-1-piperazineethanesulfonic acid, HEPES) buffer system containing 200 mM NaCl, 0.04 mM EDTA, 1 mM ATP and 2.5 mM MgCl2(pH 8.0). After reacting for 0, 10, 30, […], 3 μl of each reaction mixture was mixed with 5 μl of RNA gel loading buffer {95% formamide, 10 mM ethylenediaminetetraacetic acid (EDTA), 0.05% FF (xylene cyanol FF)} and incubated for 5 min at 65° C. The amount of the reaction product was determined by gel running in 15% polyacrylamide gel containing 7M urea, and then the initial reaction velocity (V0) from each reaction was compared. The initial reaction velocity (V0) of the enzyme is the reaction velocity of the initial linear time (until 30 min). Each initial velocity was normalized with the initial velocity from each substrate condition without peptide treatment. The initial reaction velocity of Dicer for pre-let7a-1 and pre-miR16-1 without peptide treatment were […] and 0.018 fmole/min, respectively. Each of the initial reaction velocity is a mean data of more than 3 measurements, and the standard deviation is shown as error bars.

The subject of test [2] is recombinant human Dicer processing pre-miR16-1. The experiment in a line: Dicer activity assay in the presence of peptide, substrate pre-miR16-1. In kind it is biochemical. The settings on record: 400 nM peptide, pre-miR16-1 substrate, FIG. 2. The procedure: Two types of pre-miRNA (pre-let7a-1, pre-miR16-1) used as the substrate for the Dicer enzyme activity assay was ordered and manufactured by ST Pharm Co., Ltd (FIG. 1). For Dicer activity assay, the 5′ end of the synthesized pre-miRNA was labeled with ^32p isotope. Two pmole of each pre-miRNA was isotope labeled with […] of [g-^32P]ATP (New England Biolabs) using 10 units of T4 polynucleotide kinase (New England Biolabs). Total volume of 10 μl was isotope labeled for 1 hr at 37° C. The isotope labeled RNA obtained after the reaction was purified using G-25 Sephadex column (Sigma). The purified substrate was used for measuring Dicer enzyme activity. Total reaction mixture of 30 μl containing 1 nM of isotope labeled pre-miRNA and 0.001 u/μl of recombinant human Dicer (Genlantis, CA, USA) were incubated at 37° C. in 24 mM 4-(2-hydroxyethyl)-1-piperazineethanesulfonic acid, HEPES) buffer system containing 200 mM NaCl, 0.04 mM EDTA, 1 mM ATP and 2.5 mM MgCl2(pH 8.0). After reacting for 0, 10, 30, 60 or 120 min in the presence of 400 nM concentration of 2b or 2c peptide, 3 μl of each reaction mixture was mixed with 5 μl of RNA gel loading buffer {95% formamide, 10 mM ethylenediaminetetraacetic acid (EDTA), 0.05% FF (xylene cyanol FF)} and incubated for 5 min at 65° C. The amount of the reaction product was determined by gel running in 15% polyacrylamide gel containing 7M urea, and then the initial reaction velocity (V0) from each reaction was compared. The initial reaction velocity (V0) of the enzyme is the reaction velocity of the initial linear time (until 30 min). Each initial velocity was normalized with the initial velocity from each substrate condition without peptide treatment. The initial reaction velocity of Dicer for pre-let7a-1 and pre-miR16-1 without peptide treatment were […] and 0.018 fmole/min, respectively. Each of the initial reaction velocity is a mean data of more than 3 measurements, and the standard deviation is shown as error bars.

[3] abbreviates: Table 5, second generation peptides, read-out: Kd value against pre-let7a-1.
Where [4] appears, read: Table 6, read-out: Kd pre-let7a-1.
The mark [5] stands for this setting: Table 5, second generation peptides, read-out: Kd value against pre-miR16-1.
[6] abbreviates: Table 6, read-out: Kd pre-miR16-1.

“Also recorded” adds a separate entry of the source. Where two headings read alike, the source gives them in different places.

Broadly, the Kd is the concentration at which binding is half-saturated. Consider “WKKLLKLLKKWLKLAG [Peptide 2c, Ac-WKKLLKLLKKWLKLAG, 14]”, for which the Kd on HBV (hairpin RNA) amounted to 0.46 nM; at IRES (hairpin RNA) it was 0.46 nM; on pre-let7a-1 (setting [3]), 0.15 nM; on pre-let7a-1 (setting [4]), 0.15 nM; at pre-miR16-1 (setting [5]), 0.27 nM; at pre-miR16-1 (setting [6]), 0.27 nM. Also, the Kd at pre-miR24-1 is 0.88 nM. For the same sequence, the “Discrimination ratio pre-let7a-1 (in parenthesis)” value in the test on pre-let7a-1 (Table 6) was found to be 2.8. Besides, in the test with pre-miR16-1, the “binding with pre-miR16-1” value is “first and second strongest binding”. The “Discrimination ratio pre-miR16-1 (in parenthesis)” value in the test with pre-miR16-1 (Table 6) turned out to be 1.4. Moreover, in the test on pre-miR24-1, the “Discrimination ratio pre-miR24-1 (in parenthesis)” value is 0.41. The “initial reaction velocity (V0) of Dicer, normalized to no peptide” value in test [1] and in test [2] was “increase in initial reaction velocity; also recorded: accelerated” each time.

A word on the EC50: it is the concentration giving half of the maximal effect. Consider “WKKLLKWLKKLLKLAG [Peptide 2b, Ac-WKKLLKWLKKLLKLAG, 13]”, for which the Kd was determined as 0.9 nM at HBV (hairpin RNA); 1 nM on IRES (hairpin RNA); 0.067 nM on pre-let7a-1 (setting [3]); 0.067 nM at pre-let7a-1 (setting [4]); 0.22 nM at pre-miR16-1 (setting [5]); 0.22 nM on pre-miR16-1 (setting [6]). At pre-miR24-1, this sequence had a Kd of 0.43 nM. The “binding with pre-let7a-1” value in the test with pre-let7a-1 is “strong binding; also recorded: strongest binding”. In the test with pre-let7a-1 (Table 6), the “Discrimination ratio pre-let7a-1 (in parenthesis)” value is 11. For the same sequence, the “discrimination ratio for pre-let7a-1” value with pre-let7a-1 (mean Kd against all hairpin pre-miRNA/Kd against target pre-miRNA) worked out at 11. Moreover, the “binding with pre-miR16-1” value with pre-miR16-1 was “first and second strongest binding”. In the test with pre-miR16-1 (Table 6), the “Discrimination ratio pre-miR16-1 (in parenthesis)” value came out at 1.1. Also, the “Discrimination ratio pre-miR24-1 (in parenthesis)” value in the test with pre-miR24-1 turned out to be 1.5. Besides, the “initial reaction velocity (V0) of Dicer, normalized to no peptide” value was “highest acceleration; also recorded: profound increase” in test [1] and “significantly increased; also recorded: accelerated” in test [2]. Also, the hill slope in test [1] (FIG. 3, concentration dependence, pre-miRNA substrate not named) was 3.5. Moreover, the half-maximal effective concentration (EC50) in test [1] (FIG. 3, concentration dependence, pre-miRNA substrate not named, read-out: EC50 of initial velocity of Dicer in processing pre-miRNA) was determined as 940 nM. Also, the “initial reaction velocity of Dicer” value is “significant increase; also recorded: rapid increase” in test [1] (peptide concentration higher than 100 nM) and “decrease” in test [1] (peptide concentration higher than 1,000 nM).

These data come from patent US20110230367A1, “Amphiphilic Peptides Promoting Production of Target miRNA and Method of Regulating Production of Target miRNA” (SNU R&DB FOUNDATION, priority 2009, published 2011).
